Target: T1, ROMK (Kir1.1) channel (Homo sapiens, UniProt P48048)
T1 sequence (P48048 1-391): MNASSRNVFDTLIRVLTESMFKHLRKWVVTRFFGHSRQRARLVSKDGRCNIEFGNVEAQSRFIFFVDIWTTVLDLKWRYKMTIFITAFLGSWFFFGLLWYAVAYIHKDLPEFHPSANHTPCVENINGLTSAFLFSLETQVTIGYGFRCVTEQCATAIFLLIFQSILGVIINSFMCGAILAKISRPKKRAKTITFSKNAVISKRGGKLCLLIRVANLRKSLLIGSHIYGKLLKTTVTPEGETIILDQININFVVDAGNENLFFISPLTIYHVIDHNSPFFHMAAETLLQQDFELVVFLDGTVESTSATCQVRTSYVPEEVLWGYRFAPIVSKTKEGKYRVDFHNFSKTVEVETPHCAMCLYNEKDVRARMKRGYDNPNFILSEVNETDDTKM
Assay: Thallium Flux Assay
Type: cell-based
Description: A Thallium Flux Assay was performed on each of the final product compounds in the Examples. When the final product of an Example was an HCl salt, the salt was run in the Assay. This assay has been described previously; see, e.g., PCT Published Application WO 2013/062900.

SMILES | IC50 [nM]
Cc1cc(-n2cnnn2)ccc1[C@H](O)CN1CCC2(CC1)CCN(C1=CC(=O)OC1)CC2 [Example 25, (S)-4-(9-(2-hydroxy-2-(2-methyl-4-(1H-tetrazol-1-yl)phenyl)ethyl)-3,9-diazaspiro[5.5]undecan-3-yl)furan-2(5H)-one] | 22
Cc1c([C@@H](O)CN2CCC3(CC2)CCN(c2c(C)c(=O)c2=O)CC3)ccc2c1COC2=O [Example 78, (R)-3-(9-(2-hydroxy-2-(4-methyl-1-oxo-1,3-dihydroisobenzofuran-5-yl)ethyl)-3,9-diazaspiro[5.5]undecan-3-yl)-4-methylcyclobut-3-ene-1,2-dione] | 30
CC1=C(N2CCC3(CCN(C[C@H](O)c4cncc(-n5cnnn5)n4)CC3)CC2)COC1=O [Example 65, (S)-4-(9-(2-(6-(1H-tetrazol-1-yl)pyrazin-2-yl)-2-hydroxyethyl)-3,9-diazaspiro[5.5]undecan-3-yl)-3-methylfuran-2(5H)-one] | 109
CO[C@@H](CN1CCC2(CC1)CCN(c1c(C)c(=O)c1=O)CC2)c1ccc2c(c1C)COC2=O [Example 4, (R)-3-(9-(2-methoxy-2-(4-methyl-1-oxo-1,3-dihydroisobenzofuran-5-yl)ethyl)-3,9-diazaspiro[5.5]undecan-3-yl)-4-methylcyclobut-3-ene-1,2-dione] | 230
CO[C@H](CN1CCC2(CC1)CCN(C1=CC(=O)OC1)CC2)c1ccc2c(c1C)COC2=O [Example 90, (S)-5-(1-methoxy-2-(9-(5-oxo-2,5-dihydrofuran-3-yl)-3,9-diazaspiro[5.5]undecan-3-yl)ethyl)-4-methylisobenzofuran-1(3H)-one] | 165
CC1=C(N2CCC3(CCN(C[C@@H](O)c4cc(-n5cnnn5)ccn4)CC3)CC2)COC1=O [Example 68, (R)-4-(9-(2-(4-(1H-tetrazol-1-yl)pyridin-2-yl)-2-hydroxyethyl)-3,9-diazaspiro[5.5]undecan-3-yl)-3-methylfuran-2(5H)-one] | 185
CC1=C(N2CCC3(CCN(C[C@@H](O)c4cccc(-n5cnnn5)n4)CC3)CC2)COC1=O [Example 6B, (R)-4-(9-(2-(6-(1H-tetrazol-1-yl)pyridin-2-yl)-2-hydroxyethyl)-3,9-diazaspiro[5.5]undecan-3-yl)-3-methylfuran-2(5H)-one] | 20
Cc1c(N2CCC3(CCN(C[C@@H](O)c4ccc(-n5cnnn5)nn4)CC3)CC2)c(=O)c1=O [Example 84, (R)-3-(9-(2-(6-(1H-tetrazol-1-yl)pyridazin-3-yl)-2-hydroxyethyl)-3,9-diazaspiro[5.5]undecan-3-yl)-4-methylcyclobut-3-ene-1,2-dione] | 765
Cc1c(CC(=O)N2CCC3(CC2)CCN(C2=CC(=O)OC2)CC3)ccc2c1COC2=O [Example 105, 4-methyl-5-{2-oxo-2-[9-(5-oxo-2,5-dihydrofuran-3-yl)-3,9-diazaspiro[5.5]undec-3-yl]ethyl}-2-benzofuran-1(3H)-one] | 483
Cc1cc(-n2cnnn2)ccc1[C@@H](O)CN1CCC2(CC1)CCN(C1=CC(=O)OC1)CC2 [Example 24, (R)-4-(9-(2-hydroxy-2-(2-methyl-4-(1H-tetrazol-1-yl)phenyl)ethyl)-3,9-diazaspiro[5.5]undecan-3-yl)furan-2(5H)-one] | 40
Cc1c([C@H](O)CN2CCC3(CC2)CCN(C2=CC(=O)OC2)CC3)ccc2c1COC2=O [Example 5, (S)-5-(1-hydroxy-2-(9-(5-oxo-2,5-dihydrofuran-3-yl)-3,9-diazaspiro[5.5]undecan-3-yl)ethyl)-4-methylisobenzofuran-1(3H)-one] | 63
CC1=C(N2CCC3(CCN(C[C@@H](O)c4ccc(-n5cnnn5)cn4)CC3)CC2)COC1=O [Example 52, (R)-4-(9-(2-(5-(1H-tetrazol-1-yl)pyridin-2-yl)-2-hydroxyethyl)-3,9-diazaspiro[5.5]undecan-3-yl)-3-methylfuran-2(5H)-one] | 37
CC1=C(N2CCC3(CC2)CCN([C@@H](CO)c2ccc(-n4cnnn4)cc2C)CC3)COC1=O [Example 58, (R)-4-(9-(2-hydroxy-1-(2-methyl-4-(1H-tetrazol-1-yl)phenyl)ethyl)-3,9-diazaspiro[5.5]undecan-3-yl)-3-methylfuran-2(5H)-one] | 256
Cc1c([C@@H](O)CN2CCC3(CC2)CCN(C2=CC(=O)CC2)CC3)ccc2c1COC2=O [Example 72, (R)-5-(1-hydroxy-2-(9-(3-oxocyclopent-1-en-1-yl)-3,9-diazaspiro[5.5]undecan-3-yl)ethyl)-4-methylisobenzofuran-1(3H)-one] | 439
CC1=C(N2CCC3(CCN(C[C@H](O)c4ccc5c(c4C)COC5=O)CC3)CC2=O)COC1=O [Example 28, (R)-9-(2-hydroxy-2-(4-methyl-1-oxo-1,3-dihydroisobenzofuran-5-yl)ethyl)-3-(4-methyl-5-oxo-2,5-dihydrofuran-3-yl)-3,9-diazaspiro[5.5]undecan-2-one] | 552
Cc1nc(-n2cnnn2)ccc1[C@H](O)CN1CCC2(CC1)CCN(C1=CC(=O)OC1)CC2 [Example 14, (S)-4-(9-(2-hydroxy-2-(2-methyl-6-(1H-tetrazol-1-yl)pyridin-3-yl)ethyl)-3,9-diazaspiro[5.5]undecan-3-yl)furan-2(5H)-one] | 24
O=C1C=C(N2CCC3(CCN(C(=O)Cc4ccc(-n5cnnn5)nc4)CC3)CC2)CO1 [Example 99, 4-(9-(2-(6-(1H-tetrazol-1-yl)pyridin-3-yl)acetyl)-3,9-diazaspiro[5.5]undecan-3-yl)furan-2(5H)-one] | 109
Cc1c(N2CCC3(CCN(C[C@H](O)c4ccc5c(ccc6nnnn65)c4)CC3)CC2)c(=O)c1=O [Example 88, (R)-3-(9-(2-hydroxy-2-(tetrazolo[1,5-a]quinolin-7-yl)ethyl)-3,9-diazaspiro[5.5]undecan-3-yl)-4-methylcyclobut-3-ene-1,2-dione] | 223
CC1=C(N2CCC3(CCN(C[C@H](O)c4ccc5c(c4C)COC5=O)CC3)[C@H](F)C2)COC1=O [Example 35, 5-((R)-2-((S)-7-fluoro-9-(4-methyl-5-oxo-2,5-dihydrofuran-3-yl)-3,9-diazaspiro[5.5]undecan-3-yl)-1-hydroxyethyl)-4-methylisobenzofuran-1(3H)-one] | 236
O=C1C=C(N2CCC3(CCN(C[C@H](O)c4ccc(-n5cnnn5)nc4)CC3)OC2=O)CO1 [Example 30, (R)-9-(2-(6-(1H-tetrazol-1-yl)pyridin-3-yl)-2-hydroxyethyl)-3-(5-oxo-2,5-dihydrofuran-3-yl)-1-oxa-3,9-diazaspiro[5.5]undecan-2-one] | 171
CC1=C(N2CCC3(CCN(C[C@@H](O)c4ccc(-n5cnnn5)nc4)CC3)CC2)COC1=O [Example 48, (S)-4-(9-(2-(6-(1H-tetrazol-1-yl)pyridin-3-yl)-2-hydroxyethyl)-3,9-diazaspiro[5.5]undecan-3-yl)-3-methylfuran-2(5H)-one] | 19
C[C@@H]1Cc2cc(C(O)CN3CCC4(CC3)CCN(C3=CC(=O)OC3)CC4)ccc2C(=O)O1 (stereo partly drawn) [Example 10, (3R)-6-(1-hydroxy-2-(9-(5-oxo-2,5-dihydrofuran-3-yl)-3,9-diazaspiro[5.5]undecan-3-yl)ethyl)-3-methylisochroman-1-one] | 596
O=C1C=C(N2CCC3(CCN(C[C@H](O)c4ccc(-n5cnnn5)cc4F)CC3)CC2)CO1 [Example 22, (R)-4-(9-(2-(2-fluoro-4-(1H-tetrazol-1-yl)phenyl)-2-hydroxyethyl)-3,9-diazaspiro[5.5]undecan-3-yl)furan-2(5H)-one] | 17
CC1=C(N2CCC3(CCN(C[C@H](O)c4cc(-n5cnnn5)ccn4)CC3)CC2)COC1=O [Example 67, (S)-4-(9-(2-(4-(1H-tetrazol-1-yl)pyridin-2-yl)-2-hydroxyethyl)-3,9-diazaspiro[5.5]undecan-3-yl)-3-methylfuran-2(5H)-one] | 305
Cc1c([C@@H](O)CN2CCC3(CC2)CCN(C2=C(c4ccccc4)C(=O)OC2)CC3)ccc2c1COC2=O [Example 41, (R)-5-(1-hydroxy-2-(9-(5-oxo-4-phenyl-2,5-dihydrofuran-3-yl)-3,9-diazaspiro[5.5]undecan-3-yl)ethyl)-4-methylisobenzofuran-1(3H)-one] | 168
CC1=C(N2CCC3(CCN(C[C@H](O)c4ccc(-n5cnnn5)nc4C)CC3)CC2=O)COC1=O [Example 29, (R)-9-(2-hydroxy-2-(2-methyl-6-(1H-tetrazol-1-yl)pyridin-3-yl)ethyl)-3-(4-methyl-5-oxo-2,5-dihydrofuran-3-yl)-3,9-diazaspiro[5.5]undecan-2-one] | 330
CC1=C(N2CCC3(CCN(C[C@H](O)c4ccc(-n5cnnn5)nc4C)CC3)CC2)CCC1=O [Example 74, (R)-3-(9-(2-hydroxy-2-(2-methyl-6-(1H-tetrazol-1-yl)pyridin-3-yl)ethyl)-3,9-diazaspiro[5.5]undecan-3-yl)-2-methylcyclopent-2-enone] | 69
O=C1C=C(N2CCC3(CCN(C(=O)Cc4ccc(-n5cnnn5)cc4)CC3)CC2)CO1 [Example 102, 4-(9-{[4-(1H-tetrazol-1-yl)phenyl]acetyl}-3,9-diazaspiro[5.5]undec-3-yl)furan-2(5H)-one] | 116
Cc1nc(-n2cnnn2)ccc1[C@H](O)CN1CCC2(CC1)CCN(C1=CC(=O)CC1)CC2 [Example 71, (S)-3-(9-(2-hydroxy-2-(2-methyl-6-(1H-tetrazol-1-yl)pyridin-3-yl)ethyl)-3,9-diazaspiro[5.5]undecan-3-yl)cyclopent-2-enone] | 243
